Assay results published in patent publication USRE39591E1, “6-O-substituted ketolides having antibacterial activity” (Abbott Laboratories, priority 1996, dated 2007).
In brackets after ≈: the same amount, converted by molar mass.

System: up to 32 different microorganisms
Test: in vitro antibacterial activity (MIC), agar dilution on Brain Heart Infusion (BHI) agar with Steers replicator
Format: cell-based
Conditions: unit assumed
In short: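 MIC read visually: lowest drug level with no growth, slight haze or sparsely isolated colonies on the inoculum spot relative to drug-free control. Serial aqueous compound dilutions in BHI agar, 1:100 inoculum (1:10 slow strains), 20 to 24 hours at 35°-37° C.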

[1] = Candida albicans CCH 442 (code TT)
[2] = Enterococcus faecism ATCC 8043 (code II)
[3] = Escherichia coli DC-2 (code SS)
[4] = Escherichia coli JUHL (code QQ)
[5] = Haemophilis influenzae DILL AMP R (code WW)
[6] = Micrococcus luteus ATCC 4698 (code PP)
[7] = Micrococcus luteus ATCC 9341 (code OO)
[8] = Mycobacterium smegmatis ATCC 114 (code UU)
[9] = Nocardia Asteroides ATCC9970 (code VV)
[10] = Staphylococcus aureus 1775 (code GG)
[11] = Staphylococcus aureus A5177 (code BB)
[12] = Staphylococcus aureus A-5278 (code CC)
[13] = Staphylococcus aureus ATCC 6538P (code AA)
[14] = Staphylococcus aureus CMX 553 (code FF)
[15] = Staphylococcus aureus CMX 642A (code DD)
[16] = Staphylococcus aureus NCTC10649M (code EE)
[17] = Staphylococcus epidermidis 3519 (code HH)
[18] = Streptococcus Pneumonia 5649 (code ZZA)
[19] = Streptococcus Pneumonia 5979 (code ZZ)
[20] = Streptococcus Pneumonia ATCC6303 (code XX)
[21] = Streptococcus Pneumonia GYR 1171 (code YY)
[22] = Streptococcus agalactiae CMX 508 (code KK)
[23] = Streptococcus bovis A-5169 (code JJ)
[24] = Streptococcus pyogenes 930 (code MM)
[25] = Streptococcus pyogenes EES61 (code LL)
[26] = Streptococcus pyogenes PIU 2548 (code NN)

Structure (SMILES): CC[C@H]1OC(=O)[C@H](C)C(=O)[C@H](C)[C@@H](O[C@@H]2O[C@H](C)C[C@H](N(C)C)[C@H]2O)[C@@](C)(OCC=Cc2ccc(Cl)cc2)C[C@@H](C)C(=O)[C@H](C)[C@H]2OC(=O)O[C@@]21C [Example 74, Compound of Formula (IX): L is CO, T is O, R is —CH2CH═CH-(4-chlorophenyl)]
- MIC [1]: > 100 µg/mL
- MIC [2]: 0.1 µg/mL
- MIC [3]: > 100 µg/mL
- MIC [4]: > 100 µg/mL
- MIC (Escherichia coli SS (code RR)): 3.3 µg/mL
- MIC [5]: 4 µg/mL
- MIC [6]: 0.2 µg/mL
- MIC [7]: 0.05 µg/mL
- MIC [8]: 0.39 µg/mL
- MIC [9]: 0.39 µg/mL
- MIC [10]: > 100 µg/mL
- MIC [11]: 0.2 µg/mL
- MIC [12]: > 100 µg/mL
- MIC [13]: 0.2 µg/mL
- MIC [14]: 0.2 µg/mL
- MIC [15]: 0.2 µg/mL
- MIC [16]: 0.2 µg/mL
- MIC [17]: 0.2 µg/mL
- MIC [18]: 0.5 µg/mL
- MIC [19]: 32 µg/mL
- MIC [20]: 0.125 µg/mL
- MIC [21]: 0.125 µg/mL
- MIC [22]: 0.05 µg/mL
- MIC [23]: 0.05 µg/mL
- MIC [24]: 50 µg/mL
- MIC [25]: 0.05 µg/mL
- MIC [26]: 0.39 µg/mL

Structure (SMILES): CC[C@H]1OC(=O)[C@H](C)C(=O)[C@H](C)[C@@H](O[C@@H]2O[C@H](C)C[C@H](N(C)C)[C@H]2O)[C@@](C)(OCCNCCc2ccccc2)C[C@@H](C)C(=O)[C@H](C)[C@@H](O)[C@]1(C)O [Example 10]
- MIC [1]: > 100 µg/mL
- MIC [2]: 6.2 µg/mL (≈ 8.6 µM)
- MIC [3]: > 100 µg/mL
- MIC [4]: > 100 µg/mL
- MIC (Escherichia coli SS (code RR)): 1.56 µg/mL (≈ 2.16 µM)
- MIC [5]: 64 µg/mL (≈ 88.8 µM)
- MIC [6]: 1.56 µg/mL (≈ 2.16 µM)
- MIC [7]: 0.2 µg/mL (≈ 0.277 µM)
- MIC [8]: 12.5 µg/mL (≈ 17.3 µM)
- MIC [9]: 1.56 µg/mL (≈ 2.16 µM)
- MIC [10]: > 100 µg/mL
- MIC [11]: 6.2 µg/mL (≈ 8.6 µM)
- MIC [12]: > 100 µg/mL
- MIC [13]: 6.2 µg/mL (≈ 8.6 µM)
- MIC [14]: 6.2 µg/mL (≈ 8.6 µM)
- MIC [15]: 6.2 µg/mL (≈ 8.6 µM)
- MIC [16]: 6.2 µg/mL (≈ 8.6 µM)
- MIC [17]: 6.2 µg/mL (≈ 8.6 µM)
- MIC [18]: 4 µg/mL (≈ 5.55 µM)
- MIC [19]: > 128 µg/mL
- MIC [20]: 2 µg/mL (≈ 2.77 µM)
- MIC [21]: 2 µg/mL (≈ 2.77 µM)
- MIC [22]: 1.56 µg/mL (≈ 2.16 µM)
- MIC [23]: 0.2 µg/mL (≈ 0.277 µM)
- MIC [24]: > 100 µg/mL
- MIC [25]: 0.39 µg/mL (≈ 0.541 µM)
- MIC [26]: 1.56 µg/mL (≈ 2.16 µM)

Structure (SMILES): CCC1OC(=O)C(C)C(=O)C(C)C(OC2OC(C)CC(N(C)C)C2O)C(C)(OCC=Cc2ccc(-c3ccon3)s2)CC(C)C(=O)C(C)C2NC(=O)OC12C (stereo not drawn) [Example 292, Compound of Formula (IX): L is CO, T is NH, R is —CH2CH═CH-(5-(3-ixoxazolyl)-2-thiophenyl)]
- MIC (organism code AA): 0.1 µg/mL
- MIC (organism code BB): 0.1 µg/mL
- MIC (organism code CC): > 100 µg/mL
- MIC (organism code DD): 0.1 µg/mL
- MIC (organism code EE): 0.1 µg/mL
- MIC (organism code FF): 0.1 µg/mL
- MIC (organism code GG): > 100 µg/mL
- MIC (organism code HH): 0.05 µg/mL
- MIC (organism code II): 0.02 µg/mL
- MIC (organism code JJ): ≤ 0.005 µg/mL
- MIC (organism code KK): 0.02 µg/mL
- MIC (organism code LL): 0.01 µg/mL
- MIC (organism code MM): 12.5 µg/mL
- MIC (organism code NN): 0.05 µg/mL
- MIC (organism code OO): 0.02 µg/mL
- MIC (organism code PP): 0.1 µg/mL
- MIC (organism code QQ): 50 µg/mL
- MIC (organism code RR): 0.2 µg/mL
- MIC (organism code SS): 100 µg/mL
- MIC (organism code TT): > 100 µg/mL
- MIC (organism code UU): 0.78 µg/mL
- MIC (organism code VV): 0.02 µg/mL
- MIC (organism code WW): 2 µg/mL
- MIC (organism code XX): 0.03 µg/mL
- MIC (organism code YY): 0.03 µg/mL
- MIC (organism code ZZ): 16 µg/mL
- MIC (organism code ZZA): 0.25 µg/mL

Structure (SMILES): C=CCOC1(C)CC(C)C(=O)C(C)C2N(CC=C)C(=O)OC2(C)C(CC)OC(=O)C(C)C(=O)C(C)C1OC1OC(C)CC(N(C)C)C1O (stereo not drawn) [Example 183, Compound of Formula (IX): L is CO, T is N (CH2CH═CH2), R is —CH2CH═CH2]
- MIC [1]: > 100 µg/mL
- MIC [2]: 3.1 µg/mL
- MIC [3]: > 100 µg/mL
- MIC [4]: > 100 µg/mL
- MIC (Escherichia coli SS (code RR)): 25 µg/mL
- MIC [5]: > 128 µg/mL
- MIC [6]: 25 µg/mL
- MIC [7]: 6.2 µg/mL
- MIC [8]: > 100 µg/mL
- MIC [9]: 1.56 µg/mL
- MIC [10]: > 100 µg/mL
- MIC [11]: 25 µg/mL
- MIC [12]: > 100 µg/mL
- MIC [13]: 25 µg/mL
- MIC [14]: 25 µg/mL
- MIC [15]: 25 µg/mL
- MIC [16]: 25 µg/mL
- MIC [17]: 25 µg/mL
- MIC [18]: 2 µg/mL
- MIC [19]: > 128 µg/mL
- MIC [20]: 2 µg/mL
- MIC [21]: 2 µg/mL
- MIC [22]: 1.56 µg/mL
- MIC [23]: 0.78 µg/mL
- MIC [24]: > 100 µg/mL
- MIC [25]: 1.56 µg/mL
- MIC [26]: 3.1 µg/mL

Structure (SMILES): C=CCO[C@@]1(C)C[C@@H](C)C(=O)[C@H](C)[C@H]2N(N)C(=O)O[C@]2(C)[C@@H](CC)OC(=O)[C@H](C)C(=O)[C@H](C)[C@H]1O[C@@H]1O[C@H](C)C[C@H](N(C)C)[C@H]1O [Example 262, Compound of Formula (IX): L is CO, T is N(NH2), R is —CH CH═CH2]
- MIC (organism code AA): 0.78 µg/mL
- MIC (organism code BB): 0.78 µg/mL
- MIC (organism code CC): > 100 µg/mL
- MIC (organism code DD): 0.78 µg/mL
- MIC (organism code EE): 0.78 µg/mL
- MIC (organism code FF): 0.78 µg/mL
- MIC (organism code GG): > 100 µg/mL
- MIC (organism code HH): 0.78 µg/mL
- MIC (organism code II): 0.39 µg/mL
- MIC (organism code JJ): ≤ 0.005 µg/mL
- MIC (organism code KK): 0.05 µg/mL
- MIC (organism code LL): 0.1 µg/mL
- MIC (organism code MM): > 100 µg/mL
- MIC (organism code NN): 0.78 µg/mL
- MIC (organism code OO): 0.1 µg/mL
- MIC (organism code PP): 0.39 µg/mL
- MIC (organism code QQ): > 100 µg/mL
- MIC (organism code RR): 1.56 µg/mL
- MIC (organism code SS): > 100 µg/mL
- MIC (organism code TT): > 100 µg/mL
- MIC (organism code UU): 6.2 µg/mL
- MIC (organism code VV): 0.39 µg/mL
- MIC (organism code WW): 16 µg/mL
- MIC (organism code XX): 0.03 µg/mL
- MIC (organism code YY): 0.03 µg/mL
- MIC (organism code ZZ): > 128 µg/mL
- MIC (organism code ZZA): 0.5 µg/mL

Structure (SMILES): CCC1OC(=O)C(C)C(=O)C(C)C(OC2OC(C)CC(N(C)C)C2O)C(C)(OCC=Cc2cccc3ncccc23)CC(C)C(=O)C(C)C2NC(=O)OC12C (stereo not drawn) [Example 196, R is —CH2CH═CH-(5-quinolyl)]
- MIC [1]: > 100 µg/mL
- MIC [2]: 0.05 µg/mL (≈ 0.0653 µM)
- MIC [3]: > 100 µg/mL
- MIC [4]: > 100 µg/mL
- MIC (Escherichia coli SS (code RR)): 0.39 µg/mL (≈ 0.509 µM)
- MIC [6]: 0.1 µg/mL (≈ 0.131 µM)
- MIC [7]: 0.01 µg/mL (≈ 0.0131 µM)
- MIC [8]: 0.2 µg/mL (≈ 0.261 µM)
- MIC [9]: 0.1 µg/mL (≈ 0.131 µM)
- MIC [10]: > 100 µg/mL
- MIC [12]: > 100 µg/mL
- MIC [13]: 0.1 µg/mL (≈ 0.131 µM)
- MIC [14]: 0.1 µg/mL (≈ 0.131 µM)
- MIC [15]: 0.1 µg/mL (≈ 0.131 µM)
- MIC [16]: 0.1 µg/mL (≈ 0.131 µM)
- MIC [17]: 0.2 µg/mL (≈ 0.261 µM)
- MIC [22]: ≤ 0.005 µg/mL
- MIC [23]: ≤ 0.005 µg/mL
- MIC [24]: > 100 µg/mL
- MIC [25]: ≤ 0.005 µg/mL
- MIC [26]: 0.2 µg/mL (≈ 0.261 µM)
